Assay results taken from patent publication US20240199651A1, “ANTIBACTERIAL COMPOUNDS” (JANSSEN SCIENCES IRELAND UNLIMITED COMPANY, priority 2021, published 2024).
In brackets after ≈: the same amount, converted by molar mass. Where two headings read alike, the source gives them in different places.

What was measured:
[1] = LM CLint (microsomal stability), mouse; format: in vitro ADME; settings: microsomes
Source text: (§1) The compounds of the invention/examples may have advantages associated with in vitro potency, kill kinetics (i.e. bactericidal effect) in vitro, PK properties, food effect, safety/toxicity (including liver toxicity, coagulation, 5-LO oxygenase), metabolic stability, Ames II negativity, MNT negativity, aqueous based solubility (and ability to formulate) and/or cardiovascular effect e.g. on animals (e.g. anesthetized guinea pig). Data that is generated/calculated may be obtained using standard methods/assays, for instance that are available in the literature or which may be performed by a supplier (e.g. Microsomal Stability Assay—Cyprotex, Mitochondrial toxicity (Glu/Gal) assay—Cyprotex, as well as literature CYP cocktail inhibition assays). GSH can be measured (reactive metabolites, glucuronidation) to observe if a dihydrodiol is observed by LCMS (fragmentation ions), which would correspond to a dihydroxylation on the core heterocycle.
(§2) CLint Microsomes (μL/Min/Mg) in Dog (d), Human (h), Mouse (m) and Rat (r) (all at 1 μm)

[2] = Chemical stability testing (LCMS); format: physicochemical; settings: for chemical stability, % by LCMS: 30 µM; for chemical stability, purity by LCMS: 0.065 mg/mL
Method: • Add 3 μl of a 10 mM DMSO stock solution to 1 ml of the following solvents in a 1.5 ml HPLC vial. • DMSO (reference solution) • H2O/Acetonitril 1/1 (assay solution) • 0.1N HCl/Acetonitril 1/1 (assay solution) • Mix well, […] LCMS • Compare the chromatograms of the two assay solutions with the reference solution and report the additional peaks as degradation peaks

[3] = LM CLint (microsomal stability), human; format: in vitro ADME; settings: liver microsomes, read-out: CLint Microsomes, Human (h)
Source text: as §1, §2

in vitro = in vitro ADME; settings: human, plasma
Source text: PPB % Free (Human at 1 μm)

[4] = Mitochondrial toxicity (Glu/Gal) assay; format: cell-based; parameters: Glu/Gal: Glu / Glu/Gal: Gal: unit not given here; settings: for Glu/Gal: Glu: first value (Glu); for Glu/Gal: Gal: second value (Gal)
AMES II = format: cell-based; settings: score
Source text: as §1

MDCK = MDCK permeability (AB+inh, BA/AB); settings: with inhibitor
[5] = test system: Mycobacterium tuberculosis strain EH4.0 expressing green-fluorescent protein (GFP); assay: microbe, parasite or virus in culture; format: cell-based; settings: Mycobacterium tuberculosis; Test 1 (and/or Test 2); M. tuberculosis
[6] = LM CLint (microsomal stability), dog; format: in vitro ADME; settings: for microsomal CLint at 1 µM: microsomes
Source text: as §1, §2

[7] = LM CLint (microsomal stability), rat; format: in vitro ADME; settings: for microsomal CLint at 1 µM: microsomes
Source text: as §1, §2

M. tuberculosis H37Rv = M. tuberculosis H37Rv inside macrophages; cited from earlier work
[8] = 1 μm, read-out: CLint Microsomes, Mouse (m)

| Structure (SMILES) | microsomal CLint at 1 µM [1, 8] [µL/min/mg] | chemical stability, % by LCMS ([2]; 48 h) [%] | chemical stability, % by LCMS ([2]; 48 h, pH 1.6) [%] | microsomal CLint at 1 µM [3] [µL/min/mg] | IC50 ([4]; read-out: IC50, gal) [µM] | IC50 ([4]; read-out: IC50, glu) [µM] | MDCK AB+inh (MDCK) | Glu/Gal: Glu [4] | Glu/Gal: Gal [4] | further results |
| --- | --- | --- | --- | --- | --- | --- | --- | --- | --- | --- |
| Cc1cnc2nc(C3CC3)c(C(=O)NCc3ccc(-c4nc5n(n4)CCN(S(=O)(=O)C(F)(F)F)C5)cc3)n2c1 [Compound 42] | 20.4 | 100 | 100 | 47.1 | > 25 | > 25 |  |  |  | fraction unbound at 1 µM (in vitro): 0.029 |
| CCc1nc2ncc(C)cn2c1C(=O)NCc1ccc(-c2cc3n(n2)CCN(S(=O)(=O)C(F)(F)F)C3)c(F)c1 [Compound 82] |  | 100 | 100 |  | > 25 | > 25 | 16.2 | > 25 | > 25 | AMES II (AMES II): 1 |
| CCc1nc2ccc(Cl)cn2c1C(=O)NCc1ccc(-c2nc3n(n2)CCN(S(=O)(=O)C(F)(F)F)C3)cc1 [Compound 1] | 49.2 |  |  | 30.3 | > 200 | > 200 |  |  |  | fraction unbound at 1 µM (in vitro): 0.00047; IC50 [5]: 0.00776 µM |
| CCc1nc2ccc(C)cn2c1C(=O)NCc1ccc(-c2cc3n(n2)CCN(S(=O)(=O)C(F)(F)F)C3)cc1 [Compound 81] | 74.8 | 100 | 100 | > 347 | > 200 | > 200 |  |  |  | chemical stability, % by LCMS ([2]; 0 h): 95%; microsomal CLint at 1 µM ([6]; 1 μm, read-out: CLint Microsomes, Dog (d)): 189 µL/min/mg; microsomal CLint at 1 µM ([7]; 1 μm, read-out: CLint Microsomes, Rat (r)): 80.7 µL/min/mg |
| CCc1nc2ccc(Cl)cn2c1C(=O)NCc1ccc(N2CCC(c3ccc(OC(F)(F)F)cc3)CC2)cc1 [Compound Q203, Q203] |  |  |  |  |  |  |  |  |  | MIC50 (M. tuberculosis H37Rv): 0.28 nM (≈ 0.156 ng/mL) |
| CCc1nc2ncc(Cl)cn2c1C(=O)NCc1ccc(-c2nc3n(n2)CCN(S(=O)(=O)C(F)(F)F)C3)cc1 [Compound 2] |  |  |  |  | > 100 | > 100 | 32.5 | > 100 | > 100 | microsomal CLint at 1 µM [1]: < 7.7 µL/min/mg; chemical stability, purity by LCMS ([2]; 0 h): 99.56%; chemical stability, purity by LCMS ([2]; 0.25 h): 99.38%; chemical stability, purity by LCMS ([2]; 0.5 h): 99.21%; chemical stability, purity by LCMS ([2]; 1 h): 98.89%; chemical stability, purity by LCMS ([2]; 2 h): 98.28%; chemical stability, purity by LCMS ([2]; 4 h): 97.1%; chemical stability, % by LCMS ([2]; 72 h): 100%; chemical stability, % by LCMS ([2]; 72 h, pH 1.6): 90.52%; AMES II (AMES II): 1; CLint Microsomes, Dog (d) ([6]; 1 μm): < 7.7 μL/Min/Mg; microsomal CLint at 1 µM [6]: < 7.7 µL/min/mg; CLint Microsomes, Rat (r) ([7]; 1 μm): < 7.7 μL/Min/Mg; microsomal CLint at 1 µM [7]: < 7.7 µL/min/mg |
| CCc1nc2ncc(C)cn2c1C(=O)NCc1ccc(-c2nc3n(n2)CCN(S(=O)(=O)C(F)(F)F)C3)c(F)c1 [Compound 7] |  |  |  |  | > 200 | > 200 | 21.4 | > 200 | > 200 | microsomal CLint at 1 µM [1]: < 7.7 µL/min/mg; chemical stability, % by LCMS ([2]; 72 h): 100%; chemical stability, % by LCMS ([2]; 72 h, pH 1.6): 100% |
